From publication PMC9607159, “High-Resolution Bioassay Profiling with Complemented Sensitivity and Resolution for Pancreatic Lipase Inhibitor Screening” (Molecules, 2022)
Like-named read-outs stand apart in the source and are kept apart here.

Molecular target: T1, pancreatic lipase (PL) (Sus scrofa, UniProt P00591)
T1 construct: gene PNLIP
T1 sequence (P00591 1-450): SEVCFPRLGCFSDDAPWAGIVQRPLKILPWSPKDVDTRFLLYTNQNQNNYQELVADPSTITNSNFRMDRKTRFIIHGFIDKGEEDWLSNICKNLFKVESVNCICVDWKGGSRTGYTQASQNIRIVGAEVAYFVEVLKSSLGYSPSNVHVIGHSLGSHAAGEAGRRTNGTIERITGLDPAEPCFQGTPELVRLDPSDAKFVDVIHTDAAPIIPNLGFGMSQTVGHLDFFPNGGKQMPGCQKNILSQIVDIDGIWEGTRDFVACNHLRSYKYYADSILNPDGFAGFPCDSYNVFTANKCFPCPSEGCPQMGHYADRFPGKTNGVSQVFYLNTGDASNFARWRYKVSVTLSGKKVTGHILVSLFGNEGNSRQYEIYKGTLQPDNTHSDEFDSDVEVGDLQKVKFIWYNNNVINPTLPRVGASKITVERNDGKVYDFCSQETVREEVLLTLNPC
Test: fluorogenic 4-MUO lipase assay dose-response; also nanofractionation bioassay profiling and ligand fishing with PL magnetic beads
Format: biochemical

In the case of `O=C(O[C@@H]1Cc2c(O)cc(O)cc2O[C@@H]1c1cc(O)c(O)c(O)c1)c1cc(O)c(O)c(O)c1` [(-)-Epigallocatechin gallate], the IC50 (read-out: IC50) is reported as 0.97 µM.
`O=c1cc(-c2ccc(O)c(O)c2)oc2cc(O)cc(O)c12` [luteolin] gave an IC50 of 30.6 µM.
